Data set [1] can be described thus: Acute toxicity in ICR mouse assessed as animal survival at 327.7 mg/kg, iv measured for 14 days. It is filed as organism-based. The conditions noted are these: in vivo, time 14 day.
A short description of data set [2]: Acute toxicity in ICR mouse assessed as animal survival at 512 mg/kg, iv measured for 14 days. It is filed as organism-based. The note with it: in vivo, time 14 day.
Data set [3] is described as follows: Toxicity in ICR mouse xenografted with […] cells assessed as effect on spleen morphological changes at 20 mg/kg/day, iv for 21 days by H and E staining based assay. It counts as organism-based. The conditions noted are these: in vivo, 504 h, time 21 day. Background: Xenograft models place foreign cells or tissue in a host animal.
Data set [4] can be described thus: Acute toxicity in ICR mouse assessed as animal survival at 409.6 mg/kg, iv measured for 14 days. It counts as organism-based. The note with it: in vivo, time 14 day.
Data set [5] can be described thus: Toxicity in ICR mouse xenografted with […] cells assessed as effect on heart morphological changes at 20 mg/kg/day, iv for 21 days by H and E staining based assay. It is filed as organism-based. The note with it: in vivo, 504 h, time 21 day.
Data set [6] is described as follows: Aqueous solubility of the compound in aqueous HCl at pH 2 by HPLC-UV analysis. It is filed as physicochemical.
A short description of data set [7]: Toxicity in ICR mouse xenografted with […] cells assessed as effect on lungs morphological changes at 20 mg/kg/day, iv for 21 days by H and E staining based assay. It counts as organism-based. The conditions noted are these: in vivo, 504 h, time 21 day.
Data set [8] in a line: Aqueous solubility of the compound in phosphate buffer at pH 7.4 by HPLC-UV analysis. It counts as physicochemical.
A short description of data set [9]: Inhibition of pig brain tubulin polymerisation incubated for 30 mins and measured every 2 mins for 60 mins by spectrophotometric method. It is filed as tissue-based, Sus scrofa.
The nature of data set [10]: Toxicity in ICR mouse xenografted with […] cells assessed as effect on liver morphological changes at 20 mg/kg/day, iv for 21 days by H and E staining based assay. The conditions noted are these: in vivo, 504 h, time 21 day. It counts as organism-based.
A short description of data set [11]: Acute toxicity in iv dosed ICR mouse. It counts as organism-based. The note with it: in vivo.
Data set [12] has as its system H22. The experiment in a line: Antitumor activity against […] xenografted in ICR mouse assessed as reduction of tumor weight at 20 mg/kg/day, iv for 21 days. The conditions noted are these: 504 h, time 21 day. It is filed as functional.
Data set [13] can be described thus: Toxicity in ICR mouse xenografted with […] cells assessed as effect on kidney morphological changes at 20 mg/kg/day, iv for 21 days by H and E staining based assay. It counts as organism-based. The conditions noted are these: in vivo, 504 h, time 21 day.
In data set [14] the test system is H22. The experiment in a line: Antitumor activity against […] xenografted in ICR mouse assessed as reduction in tumor growth at 20 mg/kg/day, iv for 21 days. It counts as functional, organism-based. The note with it: time 21.0 day.
The nature of data set [15]: Acute toxicity in ICR mouse assessed as animal survival at 640 mg/kg, iv measured for 14 days. It is filed as organism-based. The conditions noted are these: in vivo, time 14 day.
Data set [16] is described as follows: Toxicity in ICR mouse xenografted with […] cells assessed as effect on body weight at 20 mg/kg/day, iv for 21 days. It is filed as organism-based. The conditions noted are these: in vivo, 504 h, time 21 day.
A short description of data set [17]: Acute toxicity in ICR mouse assessed as animal survival at 800 mg/kg, iv measured for 14 days. It is filed as organism-based. The note with it: in vivo, time 14 day.
For data set [18], the system named is HCT-8. As to the kind of experiment: Antiproliferative activity against taxol-resistant human HCT-8 cells assessed as reduction in cell viability incubated for 72 hrs by MTT assay. It is filed as functional, cell-based.
Data set [19] has as its system K562.
Description: (§1) Antiproliferative activity against human K562 cells assessed as reduction in cell viability incubated for 72 hrs by MTT assay
The test system of data set [20] is HCT-8. The experiment in a line: Antiproliferative activity against human HCT-8 cells assessed as reduction in cell viability incubated for 72 hrs by MTT assay. It is filed as functional, cell-based. (In general: Tetrazolium assays rely on reduction of a dye to a coloured formazan, in cell work by metabolically active cells.)
Data set [21] is described as follows: Resistant index, ratio of IC50 for ADR-resistant human Bel-7402 cells to IC50 for human Bel-7402 cells. It counts as functional.
The next data set concerns K562/VCR. As to the kind of experiment: Antiproliferative activity against VCR resistant human K562/VCR cells assessed as reduction in cell viability incubated for 72 hrs by MTT assay. It is filed as functional, cell-based.
The next data set relates to MDA-MB-231. As to the kind of experiment: Antiproliferative activity against human MDA-MB-231 cells assessed as reduction in cell viability incubated for 72 hrs by MTT assay. The note with it: MDA-MB-231, 72 h. It counts as functional, cell-based.
In a further data set the test system is A-431. The experiment in a line: Antiproliferative activity against human A-431 cells assessed as reduction in cell viability incubated for 72 hrs by MTT assay. It is filed as functional, cell-based. The note with it: A-431, 72 h.
For the next data set, the system named is HepG2. The experiment in a line: cells. The note with it: Homo sapiens, HepG2, 72 h.
For data set [22], the species on record is Sus scrofa. The experiment in a line: Inhibition of [3H]colchicine binding to biotinylated pig brain tubulin at 5 uM incubated for 2 hrs in presence of GTP by competitive scintillation proximity assay. It counts as tissue-based.
The nature of data set [23]: Metabolic stability in rat plasma assessed as parent compound remaining at 100 nM measured after 3 hrs by HPLC analysis. The conditions noted are these: read-out: Stabilty. It is filed as ADME, cell-free.
In data set [24] the test system is Bel-7402. As to the kind of experiment: Antiproliferative activity against human Bel-7402 cells assessed as reduction in cell viability incubated for 72 hrs by MTT assay. It counts as functional, cell-based.
Data set [25] relates to K562. The experiment in a line: cells. The note with it: Homo sapiens, K562, 72 h.
Description: as §1
For data set [26], the species on record is Sus scrofa. As to the kind of experiment: Inhibition of [3H]colchicine binding to biotinylated pig brain tubulin at 1 uM incubated for 2 hrs in presence of GTP by competitive scintillation proximity assay. It is filed as tissue-based. For orientation: SPA uses beads or plates that emit light when radiolabelled molecules are held near them.
The nature of data set [27]: Resistant index, ratio of IC50 for VCR resistant human K562 cells to IC50 for human K562 cells. It is filed as functional.
Data set [28] in a line: Resistant index, ratio of IC50 for taxol-resistant human HCT-8 cells to IC50 for human HCT-8 cells. It counts as functional.
For data set [29], the system named is Bel-7402. As to the kind of experiment: Antiproliferative activity against ADR-resistant human Bel-7402 cells assessed as reduction in cell viability incubated for 72 hrs by MTT assay. It is filed as functional, cell-based.
Another data set has as its system L02. The experiment in a line: Cytotoxicity against human L02 cells assessed as reduction in cell viability incubated for 72 hrs by MTT assay. It is filed as cell-based. The conditions noted are these: L02, 72 h.
Data set [30] is described as follows: Metabolic stability in rat plasma assessed as parent compound remaining at 100 nM measured after 60 mins by HPLC analysis. It is filed as ADME, cell-free. The note with it: 1 h, 0.1 µM.
The test system of data set [31] is H22. As to the kind of experiment: Antiproliferative activity against mouse H22 cells assessed as reduction in cell viability incubated for 72 hrs by MTT assay. It is filed as functional, cell-based. The conditions noted are these: H22, 72 h.
For data set [32], the system named is H22. As to the kind of experiment: Antitumor activity against […] xenografted in ICR mouse assessed as reduction in tumor weight at 6 mg/kg, iv dosed every other day for 21 days. It counts as functional. The note with it: 504 h, time 21 day.
Where [33] appears, read: Homo sapiens, HCT-8, 72 h, read-out: IC50.
Where [34] appears, read: Homo sapiens, Bel-7402, 72 h, read-out: IC50.

Activity calls are given as the source filed them. The rule behind the calls is not given here. Bounds are passed on as bounds.

Regarding `COc1ccc(CNC(=O)c2cc(F)ccc2N2CCOCC2)cc1OP(=O)([O-])[O-].[Na+].[Na+]`, the survival at 336 h amounted to 90% in data set [1]; 70% in data set [2]; 80% in data set [4]; 50% in data set [15]; 20% in data set [17]. Besides, the Activity entry in data set [3], in data set [5], in data set [7], in data set [10], in [13] and in [16] was “Non-Toxic” in each case. In addition, the solubility in data set [6] and in data set [8] was more than 1000 µg/mL in each case. In addition, the IC50 in data set [9] was 6180 nM. For the same compound, in data set [11], the LD50 worked out at 600 mg/kg. The inhibition in vivo at 20 mg/kg/day in the data set on H22 [12] stood at 71.4%. Further, the outcome with H22 [14] was Active.
For `COc1cccc2c1C(=O)c1c(O)c3c(c(O)c1C2=O)C[C@@](O)(C(=O)CO)C[C@@H]3O[C@H]1C[C@H](N)[C@H](O)[C@H](C)O1.Cl` [DOXORUBICIN HYDROCHLORIDE], the IC50 result in the data set with HCT-8 [18] (hct-8), with K562 [19], with HCT-8 [20] (hct-8) and with K562/VCR (k562/vcr) was “Not Active” each time. For the same compound, the “Ratio IC50” value in data set [21] was 6.3.
On to `CSc1ccc(COC(=O)c2cc([N+](=O)[O-])ccc2N2CCOCC2)cc1`, for which the IC50 in the data set with HCT-8 [18] (setting [33]) turned out to be 221 nM; in the data set on MDA-MB-231, 31 nM; in the data set on A-431, 10 nM; in the data set with HCT-8 [20] (setting [33]) it was 27 nM; with HepG2, 33 nM; in the data set with Bel-7402 [24] (setting [34]), 56 nM. Moreover, the IC50 came to 10 nM with K562 [25]; 2990 nM in data set [9]; 268 nM in the data set with Bel-7402 [29] (setting [34]); 44 nM in the data set with L02; 297 nM with K562/VCR (Homo sapiens, K562/VCR, 72 h, read-out: IC50); 25 nM in the data set with H22 [31]. The inhibition stood at 85.7% in the data set listed under Sus scrofa [22] and 58% in the data set listed under Sus scrofa [26]. The remaining at 3 h, 0.1 µM in [23] is 72.6%. Moreover, the “Ratio IC50” value is 4.8 in data set [21], 29.7 in data set [27] and 8.2 in data set [28]. Besides, the inhibition in vivo at 20 mg/kg/day with H22 [12] stood at 66.7%. The Stabilty entry in [30] is on record as “Stable”.
As for `CCOC(=O)[C@H](CCc1ccccc1)N[C@@H](C)C(=O)N1CCC[C@H]1C(=O)O` [ENALAPRIL], in data set [30], the Stabilty entry was “Unstable”.
Take `CC(=O)O[C@H]1C(=O)[C@@]2(C)[C@H]([C@H](OC(=O)c3ccccc3)[C@]3(O)C[C@H](OC(=O)[C@H](O)[C@@H](NC(=O)c4ccccc4)c4ccccc4)C(C)=C1C3(C)C)[C@]1(OC(C)=O)CO[C@@H]1C[C@@H]2O` [PACLITAXEL]: the IC50 result with K562 [19], in the data set with Bel-7402 [24] (bel-7402), in the data set with Bel-7402 [29] (bel-7402) and in the data set with K562/VCR (k562/vcr) was “Not Active” in each case. Also, the inhibition in vivo at 6 mg/kg with H22 [32] is 72.7%.

A word on the solubility: it is the dissolved amount per volume that the medium holds. Read a high solubility as a readily soluble substance. One may read the IC50 as the concentration at which inhibition is half-maximal. As usually defined, the LD50 is the dose at which mortality reaches 50%. Read a high LD50 as a less toxic substance. As a reminder, the inhibition in vivo is the drop in the measured response relative to a control, in per cent. For orientation: inhibition means the change of the read-out against control, counted positive when it falls.

Values taken from ChEMBL document CHEMBL4813973, “Discovery of novel N-benzylbenzamide derivatives as tubulin polymerization inhibitors with potent antitumor activities” (Eur J Med Chem, 2021).
